Data taken from ChEMBL document CHEMBL1932926, “New substituted C-19-andrographolide analogues with potent cytotoxic activities” (2012).
pEC50: −log10 of the molar value.

Tests used:
Type in all cases: functional
Conditions in all cases: read-out: ED50 (the source's name)
[1] = Cytotoxicity against rat ASK cells by SRB assay
MCF7 = experiment: Cytotoxicity against human MCF7 cells by SRB assay
Col2 = experiment: Cytotoxicity against human Col2 cells by SRB assay
KB = experiment: Cytotoxicity against human KB cells by SRB assay
Lu1 = experiment: Cytotoxicity against human Lu1 cells by SRB assay
P388 = experiment: Cytotoxicity against mouse P388 cells by SRB assay

Compound | pEC50 [1] | pEC50 (MCF7) | pEC50 (Col2) | pEC50 (KB) | pEC50 (Lu1) | pEC50 (P388)
C=C1CC[C@@H]2[C@](C)(COC(c3ccccc3)(c3ccccc3)c3ccccc3)[C@H](OC(C)=O)CC[C@@]2(C)[C@@H]1C/C=C1/C(=O)OC[C@H]1OC(C)=O | 4.82 | 4.64 | 4.64 | 5.01 | 5.08 | 5.72
C=C1CC[C@@H]2[C@](C)(CO)[C@H](O)CC[C@@]2(C)[C@@H]1C/C=C1/C(=O)OC[C@H]1O [ANDROGRAPHOLIDE] | 4.79 | 4.81 | 4.87 | 4.56 | 4.89 | 5.65
C=C1CC[C@@H]2[C@](C)(CO[Si](C(C)C)(C(C)C)C(C)C)[C@H](O)CC[C@@]2(C)[C@@H]1C/C=C1/C(=O)OC[C@H]1O | 5.55 | 5.54 | 5.56 | 5.56 | 5.52 | 6.06
C=C1CC[C@@H]2[C@](C)(CO[Si](C)(C)C(C)(C)C)[C@H](OC(C)=O)CC[C@@]2(C)[C@@H]1C/C=C1/C(=O)OC[C@H]1OC(C)=O | 5.91 | 5.55 | 5.65 | 5.44 | 5.53 | 6.47
C=C1CC[C@@H]2[C@](C)(CO[Si](c3ccccc3)(c3ccccc3)C(C)(C)C)[C@H](OC(C)=O)CC[C@@]2(C)[C@@H]1C/C=C1/C(=O)OC[C@H]1OC(C)=O | 4.48 | 4.34 | 4.91 | 4.54 | 4.28 | 5.78
C=C1CC[C@@H]2[C@](C)(CO[Si](C)(C)C(C)(C)C)[C@H](OC(C)=O)CC[C@@]2(C)[C@@H]1C/C=C1/C(=O)OC[C@H]1O | 5.09 | 5.01 | 4.95 | 4.95 | 5.02 | 5.77
C=C1CC[C@@H]2[C@]3(C)COC(C)(C)O[C@@H]3CC[C@@]2(C)[C@@H]1C/C=C1/C(=O)OC[C@H]1O | 4.28 | 4.37 | 4.40 | 4.18 | 4.28 | 5.42
C=C1CC[C@@H]2[C@](C)(COC(C)=O)[C@H](O)CC[C@@]2(C)[C@@H]1C/C=C1/C(=O)OC[C@H]1OC(C)=O | 4.79 | 4.73 | 4.82 | 4.58 | 4.70 | 5.79
C=C1CC[C@@H]2[C@](C)(COC(C)=O)[C@H](O)CC[C@@]2(C)[C@@H]1C/C=C1/C(=O)OC[C@H]1O | 4.78 | 4.74 | 4.89 | 4.82 | 4.85 | 5.69
C=C1CC[C@@H]2[C@](C)(CO[Si](C)(C)C(C)(C)C)[C@H](O)CC[C@@]2(C)[C@@H]1C/C=C1/C(=O)OC[C@H]1OC(C)=O | 5.47 | 4.98 | 5.05 | 4.97 | 4.98 | 5.99
C=C1CC[C@@H]2[C@](C)(CO[Si](c3ccccc3)(c3ccccc3)C(C)(C)C)[C@H](O)CC[C@@]2(C)[C@@H]1C/C=C1/C(=O)OC[C@H]1OC(C)=O | 4.92 | 5.02 | 4.97 | 4.98 | 4.93 | 6.48
C=C1CC[C@@H]2[C@](C)(CO[Si](C)(C)C(C)(C)C)[C@H](O)CC[C@@]2(C)[C@@H]1C/C=C1/C(=O)OC[C@H]1O | 4.81 | 4.33 | 4.77 | 4.39 | 4.31 | 5.08
C=C1CC[C@@H]2[C@](C)(COC(C)=O)[C@H](OC(C)=O)CC[C@@]2(C)[C@@H]1C/C=C1/C(=O)OC[C@H]1OC(C)=O | 4.94 | 5.00 | 4.97 | 4.93 | 4.91 | 5.85
C=C1CC[C@@H]2[C@](C)(CO)[C@H](OC(C)=O)CC[C@@]2(C)[C@@H]1C/C=C1/C(=O)OC[C@H]1O | 4.24 | 4.58 | 4.57 | 4.45 | 4.51 | 5.32
C=C1CC[C@@H]2[C@](C)(CO[Si](c3ccccc3)(c3ccccc3)C(C)(C)C)[C@H](O)CC[C@@]2(C)[C@@H]1C/C=C1/C(=O)OC[C@H]1O | 5.26 | 5.09 | 5.02 | 4.95 | 4.94 | 6.17
Cc1c2ccncc2c(C)c2c1[nH]c1ccccc12 [ELLIPTECINE] | 5.45 | 5.57 | 5.57 | 5.61 | 5.79 | 5.61
C=C1CC[C@@H]2[C@](C)(COC(c3ccccc3)(c3ccccc3)c3ccccc3)[C@H](O)CC[C@@]2(C)[C@@H]1C/C=C1/C(=O)OC[C@H]1O | 5.54 | 5.57 | 5.56 | 5.62 | 6.06 | 6.35
C=C1CC[C@@H]2[C@](C)(COC(C)=O)[C@H](OC(C)=O)CC[C@@]2(C)[C@@H]1C/C=C1/C(=O)OC[C@H]1O | 4.65 | 4.71 | 4.82 | 4.45 | 4.46 | 5.58
C=C1CC[C@@H]2[C@](C)(CO[Si](C(C)C)(C(C)C)C(C)C)[C@H](OC(C)=O)CC[C@@]2(C)[C@@H]1C/C=C1/C(=O)OC[C@H]1OC(C)=O | 5.12 | 4.86 | 4.87 | 5.13 | 4.73 | 5.85
C=C1CC[C@@H]2[C@](C)(CO[Si](c3ccccc3)(c3ccccc3)C(C)(C)C)[C@H](OC(C)=O)CC[C@@]2(C)[C@@H]1C/C=C1/C(=O)OC[C@H]1O | 4.98 | 5.12 | 5.42 | 5.01 | 4.96 | 6.30
C=C1CC[C@@H]2[C@](C)(CO)[C@H](OC(C)=O)CC[C@@]2(C)[C@@H]1C/C=C1/C(=O)OC[C@H]1OC(C)=O | 4.94 | 4.96 | 4.99 | 4.93 | 5.06 | 6.16
